molecular target: T1, NAD(+) hydrolase SARM1 [28-724] (UniProt Q6SZW1); test: SARM1 Inhibitory Activity
T1 construct: 28-724
T1 sequence (Q6SZW1 whole entry): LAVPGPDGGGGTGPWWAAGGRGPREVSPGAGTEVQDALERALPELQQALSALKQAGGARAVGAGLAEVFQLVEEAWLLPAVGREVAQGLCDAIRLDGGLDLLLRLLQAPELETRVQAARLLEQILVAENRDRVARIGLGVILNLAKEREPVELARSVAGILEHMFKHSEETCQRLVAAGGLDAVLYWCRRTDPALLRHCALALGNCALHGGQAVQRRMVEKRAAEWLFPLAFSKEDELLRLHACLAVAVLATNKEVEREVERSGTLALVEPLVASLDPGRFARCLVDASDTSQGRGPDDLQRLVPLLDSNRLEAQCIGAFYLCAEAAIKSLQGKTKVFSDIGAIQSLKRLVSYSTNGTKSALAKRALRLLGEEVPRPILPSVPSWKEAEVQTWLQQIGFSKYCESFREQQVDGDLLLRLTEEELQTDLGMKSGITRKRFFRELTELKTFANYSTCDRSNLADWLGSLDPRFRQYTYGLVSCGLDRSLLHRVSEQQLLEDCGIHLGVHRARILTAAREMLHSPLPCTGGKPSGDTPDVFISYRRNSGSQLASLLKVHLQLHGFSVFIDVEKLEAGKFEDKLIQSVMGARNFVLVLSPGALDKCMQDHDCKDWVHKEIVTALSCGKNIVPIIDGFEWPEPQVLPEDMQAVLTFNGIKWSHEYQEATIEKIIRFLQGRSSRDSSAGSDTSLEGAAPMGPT
Procedure: Assay reagents were prepared in 25mM HEPES pH 7.2, 50mM NaCl, 1mM EDTA and 0.0025% Tween20. […] The peak area of NAD and linear ADPR were measured by a RapidFire High Throughput Mass Spectrometry System (Agilent Technologies, Santa Clara, CA) using an API5000 triple quadrupole mass spectrometer (AB Sciex Framingham, MA). The ratio of linear ADPR to NAD peak area was then plotted against compound concentration to obtain an IC50 as fitted via non-linear regression.

| IC50 [nM] | SMILES |
| --- | --- |
| 387 | O=C(c1cc(-c2ccncc2)n[nH]1)N1CCC(c2ccc(Cl)cc2)C1 (configuration not stated) [WO2025045746, Example 1] |
| 4510 | O=C(c1cc(-c2ccncc2)n[nH]1)N1CCC(c2ccccc2)C1 (configuration not stated) [WO2025045746, Example 2] |
| 3190 | O=C(c1cc(-c2ccncc2)n[nH]1)N1CCC2(CCc3cc(Br)ccc32)C1 (configuration not stated) [WO2025045746, Example 3] |
| 191 | O=C(c1cc(-c2ccnnc2)n[nH]1)N1CCC(c2ccc(Cl)cc2)C1 (configuration not stated) [WO2025045746, Example 4] |
| 427 | Cc1c(-c2ccnnc2)n[nH]c1C(=O)N1CCC(c2ccc(Cl)cc2)C1 (configuration not stated) [WO2025045746, Example 5] |
| 3040 | O=C(c1cc(-c2ccncc2)n[nH]1)N1CCC(c2ccccc2Cl)C1 (configuration not stated) [WO2025045746, Example 6] |
| 1280 | O=C(c1cc(-c2ccncc2)n[nH]1)N1CCC(c2cccc(Cl)c2)C1 (configuration not stated) [WO2025045746, Example 7] |
| 458 | O=C(c1cc(-c2ccncc2)n[nH]1)N1CCC(c2ccc(F)cc2Cl)C1 (configuration not stated) [WO2025045746, Example 8] |
| 194 | O=C(c1cc(-c2ccncc2)n[nH]1)N1CCC(c2ccc(Cl)s2)C1 (configuration not stated) [WO2025045746, Example 9] |
| 98 | O=C(c1cc(-c2ccnnc2)n[nH]1)N1CCC(c2ccc(Cl)s2)C1 (configuration not stated) [WO2025045746, Example 10] |
| 7390 | CC1(C)CC(c2ccccc2)CN1C(=O)c1cc(-c2ccncc2)n[nH]1 (configuration not stated) [WO2025045746, Example 11] |
| 624 | O=C(c1cc(-c2ccncc2)n[nH]1)N1C[C@@H](O)[C@H](c2ccc(Cl)cc2)C1 [WO2025045746, Example 13] |
| 2910 | Cc1ccc(C2CCN(C(=O)c3cc(-c4ccnnc4)n[nH]3)C2)cc1 (configuration not stated) [WO2025045746, Example 14] |
| 3740 | O=C(c1cc(-c2ccnnc2)n[nH]1)N1CCC(F)(c2cc(F)cc(F)c2)C1 (configuration not stated) [WO2025045746, Example 15] |
| 2170 | N#Cc1ccc(C2CCN(C(=O)c3cc(-c4ccnnc4)n[nH]3)C2)cc1 (configuration not stated) [WO2025045746, Example 16] |
| 105 | O=C(c1cc(-c2ccnnc2)n[nH]1)N1CCC(c2ccc(F)c(F)c2)C1 (configuration not stated) [WO2025045746, Example 17] |
| 6180 | O=C(c1cc(-c2ccnnc2)n[nH]1)N1CCC(c2cccc(OC(F)(F)F)c2)C1 (configuration not stated) [WO2025045746, Example 18] |
| 469 | O=C(c1cc(-c2ccnnc2)n[nH]1)N1CCC(c2ccc(Cl)nc2)C1 (configuration not stated) [WO2025045746, Example 19] |
| 9660 | O=C(c1cc(-c2ccnnc2)n[nH]1)N1CCC(c2ccc(Cl)cn2)C1 (configuration not stated) [WO2025045746, Example 20] |
| 351 | O=C(c1cc(-c2ccnnc2)n[nH]1)N1C[C@@H](O)[C@H](c2ccc(Cl)cc2)C1 [WO2025045746, Example 21] |
| 9220 | O=C(c1cc(-c2ccnnc2)n[nH]1)N1C[C@H](O)[C@H](c2ccc(Cl)cc2)C1 [WO2025045746, Example 22] |

| IC50 [nM] | SMILES |
| --- | --- |
| 2270 | O=C(c1cc(-c2ccnnc2)n[nH]1)N1CCC(F)(c2ccc(F)c(F)c2)C1 (configuration not stated) [WO2025045746, Example 23] |
| 9480 | CC1CC(c2ccccc2)C(C)N1C(=O)c1cc(-c2ccnnc2)n[nH]1 (configuration not stated) [WO2025045746, Example 24] |
| 9540 | C[C@@H]1C[C@H](c2ccc(F)cc2)CN1C(=O)c1cc(-c2ccnnc2)n[nH]1 [WO2025045746, Example 25] |
| 194 | O=C(c1cc(-c2ccncc2)n[nH]1)N1CC[C@H](c2ccc(Cl)cc2)C1 [WO2025045746, Example 26] |
| 625 | O=C(c1cc(-c2ccncc2)n[nH]1)N1CC[C@@H](c2ccc(Cl)cc2)C1 [WO2025045746, Example 27] |
| 682 | O=C(c1cc(-c2ccncc2)n[nH]1)N1CC[C@H](c2ccc(Cl)nc2)C1 [WO2025045746, Example 28] |
| 2830 | O=C(c1cc(-c2ccncc2)n[nH]1)N1CC[C@@H](c2ccc(Cl)nc2)C1 [WO2025045746, Example 29] |
| 172 | O=C(c1cc(-c2ccnnc2)n[nH]1)N1C[C@@H](O)[C@H](c2ccc(Cl)cc2)C1 [WO2025045746, Example 30] |
| 761 | O=C(c1cc(-c2ccnnc2)n[nH]1)N1C[C@H](c2ccc(Cl)cc2)[C@@H](O)C1 [WO2025045746, Example 31] |
| 521 | O=C(c1cc(-c2ccncc2)n[nH]1)N1CC(c2ccc(Cl)cc2)C2CCCCC21 (configuration not stated) [WO2025045746, Example 32] |
| 2120 | COc1cc(C2CCN(C(=O)c3cc(-c4ccnnc4)n[nH]3)C2)cc(F)c1F (configuration not stated) [WO2025045746, Example 33] |
| 5920 | O=C(c1cc(-c2ccnnc2)n[nH]1)N1C[C@H](O)[C@H](c2ccc(Cl)cc2)C1 [WO2025045746, Example 34] |
| 698 | COc1c(-c2ccnnc2)n[nH]c1C(=O)N1CCC(c2ccc(Cl)cc2)C1 (configuration not stated) [WO2025045746, Example 35] |
| 1220 | O=C(c1cc(-c2ccncc2F)n[nH]1)N1CCC(c2ccc(Cl)cc2)C1 (configuration not stated) [WO2025045746, Example 36] |
| 1780 | O=C(c1cc(-c2ccnnc2)n[nH]1)N1CCC(c2cnc(Cl)s2)C1 (configuration not stated) [WO2025045746, Example 37] |
| 8300 | O=C(c1cc(-c2ccnnc2)n[nH]1)N1CCC(c2ncc(Cl)s2)C1 (configuration not stated) [WO2025045746, Example 38] |
| 73 | O=C(c1cc(-c2ccnnc2)n[nH]1)N1CCC(c2ccc(Cl)c(F)c2)C1 (configuration not stated) [WO2025045746, Example 39] |
| 746 | N#Cc1ccc(C2CCN(C(=O)c3cc(-c4ccnnc4)n[nH]3)C2)s1 (configuration not stated) [WO2025045746, Example 40] |
| 57 | O=C(c1cc(-c2ccnnc2)n[nH]1)N1CC[C@@H](c2ccc(F)c(F)c2)C1 [WO2025045746, Example 41] |
| 183 | O=C(c1cc(-c2ccnnc2)n[nH]1)N1CC[C@H](c2ccc(F)c(F)c2)C1 [WO2025045746, Example 42] |
| 8690 | CC1CC(c2ccc(Cl)cc2)CN1C(=O)c1cc(-c2ccnnc2)n[nH]1 (configuration not stated) [WO2025045746, Example 43] |

| IC50 [nM] | SMILES |
| --- | --- |
| 114 | O=C(c1cc(-c2ccnnc2)n[nH]1)N1CCC(c2ccc(Br)s2)C1 (configuration not stated) [WO2025045746, Example 44] |
| 1540 | Cc1ccc(C2CCN(C(=O)c3cc(-c4ccnnc4)n[nH]3)C2)s1 (configuration not stated) [WO2025045746, Example 45] |
| 188 | CC1CN(C(=O)c2cc(-c3ccnnc3)n[nH]2)CC1c1ccc(Br)cc1 (configuration not stated) [WO2025045746, Example 46] |
| 142 | O=C(c1[nH]nc(-c2ccnnc2)c1Cl)N1CCC(c2ccc(F)c(F)c2)C1 (configuration not stated) [WO2025045746, Example 47] |
| 7410 | Cc1csc(C2CCN(C(=O)c3cc(-c4ccnnc4)n[nH]3)C2)c1 (configuration not stated) [WO2025045746, Example 48] |
| 379 | O=C(c1[nH]nc(-c2ccnnc2)c1Cl)N1CC[C@@H](c2ccc(F)c(F)c2)C1 [WO2025045746, Example 49] |
| 68 | O=C(c1[nH]nc(-c2ccnnc2)c1Cl)N1CC[C@H](c2ccc(F)c(F)c2)C1 [WO2025045746, Example 50] |
| 461 | O=C(c1cc(-c2ccnnc2)n[nH]1)N1CCC(c2ccc(Br)cc2)C1 (configuration not stated) [WO2025045746, Example 51] |
| 1360 | C[C@@H]1CN(C(=O)c2cc(-c3ccnnc3)n[nH]2)C[C@H]1c1ccc(Br)cc1 [WO2025045746, Example 52] |
| 84 | C[C@H]1CN(C(=O)c2cc(-c3ccnnc3)n[nH]2)C[C@@H]1c1ccc(Br)cc1 [WO2025045746, Example 53] |
| 8130 | O=C(c1cc(-c2ccnnc2)n[nH]1)N1CCC(c2cc3ccccc3s2)C1 (configuration not stated) [WO2025045746, Example 54] |
| 2170 | Cc1sc(C2CCN(C(=O)c3cc(-c4ccnnc4)n[nH]3)C2)cc1Br (configuration not stated) [WO2025045746, Example 55] |
| 500 | Cc1cnccc1-c1cc(C(=O)N2CC[C@@H](c3ccc(Cl)cc3)C2)[nH]n1 [WO2025045746, Example 56] |
| 2210 | Cc1cnccc1-c1cc(C(=O)N2CC[C@H](c3ccc(Cl)cc3)C2)[nH]n1 [WO2025045746, Example 57] |
| 340 | O=C(c1[nH]nc(-c2ccnnc2)c1Br)N1CC[C@H](c2ccc(Cl)cc2)C1 [WO2025045746, Example 58] |
| 1780 | O=C(c1[nH]nc(-c2ccnnc2)c1Br)N1CC[C@@H](c2ccc(Cl)cc2)C1 [WO2025045746, Example 59] |
| 72 | O=C(c1cc(-c2ccnnc2)n[nH]1)N1C[C@@H](CO)[C@H](c2ccc(Cl)cc2)C1 [WO2025045746, Example 60] |
| 1240 | O=C(c1cc(-c2ccnnc2)n[nH]1)N1C[C@H](CO)[C@@H](c2ccc(Cl)cc2)C1 [WO2025045746, Example 61] |
| 95 | O=C(c1[nH]nc(-c2ccnnc2)c1F)N1CC[C@H](c2ccc(Cl)cc2)C1 [WO2025045746, Example 63] |
| 492 | O=C(c1[nH]nc(-c2ccnnc2)c1F)N1CC[C@@H](c2ccc(Cl)cc2)C1 [WO2025045746, Example 64] |

Reference: BindingDB's records for patent WO2025045746 (695 Avenue de la Résistance, 2025)
